Source: PMC5368057, “Structural, thermodynamic, and phosphatidylinositol 3‐phosphate binding properties of Phafin2” (Protein Science : A Publication of the Protein Society, 2017)

Target: T1, Phafin2 (Homo sapiens, UniProt Q9H8W4)
T1 construct: gene PLEKHF2; full length (PH and FYVE domains; C-terminal tryptic peptide 224-249), pGEX4T3 GST fusion, GST removed by thrombin; N-terminus Gly-Ser-Met-Val-Asp (Gly-Ser from vector); E. coli Rosetta; 27,941 Da; monomer
T1 sequence (Q9H8W4 1-249): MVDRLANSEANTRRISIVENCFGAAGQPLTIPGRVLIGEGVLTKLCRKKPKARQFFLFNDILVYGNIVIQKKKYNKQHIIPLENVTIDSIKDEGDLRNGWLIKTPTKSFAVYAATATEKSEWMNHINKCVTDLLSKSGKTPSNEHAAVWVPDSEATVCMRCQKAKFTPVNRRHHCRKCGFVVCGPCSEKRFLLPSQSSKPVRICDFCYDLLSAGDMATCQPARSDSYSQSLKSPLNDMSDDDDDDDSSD
Test: SPR, liposomes on L1 chip, two-state conformational change fit
Format: binding
Conditions: 1.5% lipid in phosphatidylcholine (DOPC) liposomes, control liposomes without it; liposome buffer 20 mM HEPES pH 7.0, 100 mM NaCl; room temperature; apparent

**Q.** For `CCCCCCCCCCCCCCCC(=O)OC[C@H](COP(=O)(O)O[C@@H]1[C@H](O)[C@H](OP(=O)(O)O)[C@@H](O)[C@H](O)[C@H]1O)OC(=O)CCCCCCCCCCCCCCC` [dipalmitoyl PtdIns(3)P], which Kd is on record?
**A.** Its Kd is 285 ± 80 nM.
